# Key:
# [1] = test system: rat brain homogenate (lipid peroxide production); assay: Antioxidant activity test (rat brain homogenate autoxidation test); assay type: biochemical; settings: lipid peroxide production suppression, 2 hours at 37 degrees Celsius, thiobarbituric acid method
# Experimental: The cerebrum was removed from 7 to 11 week old male Wistar rats (Nihon Ikagaku) or male Sprague-Dawley (IGS) rats (Charles River), physiological saline was added, and a 20% brain homogenate was made. 4 μl of test compound dissolved in DMSO was mixed with 200 μl of brain homogenate and 200 μl of PBS (−) (diluted 100 times), incubated for 2 hours at 37 degrees Celsius and shaken at a rate of 160 times per minute, thereby producing a lipid peroxide. After cooling for 5 minutes, the produced lipid peroxide was measured as a thiobarbituric acid reactive substance by using the thiobarbituric acid method. Briefly, 100 μl of 8.1% dodecyl sulfate, 750 μl of 20% acetic acid adjusted to a pH of 3.5, and 750 μl of 0.8% thiobarbituric acid were added, and boiled for 60 minutes, and then cooled. Next, 500 μl of distilled water and 2.5 ml of N-butanol/pyridine (15:1) were added and after 5 minutes of shaking, the supernatant was taken after centrifuging for 10 minutes at 3000 rpm, and the absorbance at 532 nm was measured. The number of examples was 2 examples. Calculation was done of the (absorbance at each concentration/absorbance of a solvent control)×100, and after logit transformation, the lipid peroxide production suppression effect (IC 50 value) was calculated as an indicator of antioxidant activity.
# [2] = test system: astrocyte/neuron co-culture; assay: Brain cell damage induced by hydrogen peroxide treatment (LDH assay); assay type: cell-based; settings: Rattus norvegicus, hydrogen peroxide (250 μM), 24 hours, read-out: 50% inhibition concentration against cell damage in entire co-culture system (EC50 value)
# Experimental: (§1) The brain was removed from 1 to 2 day old Wistar rats (Charles River) or Sprague-Dawley (IGS) rats (Charles River), and the cerebral cortex including the hippocampus was excised under ice cooling. After this cerebral cortex was minced, it was digested with papain solution (9 U/ml) containing DNase I (30 U/ml) at 37 degrees Celsius for 15 minutes, dispersing the cells. After further carrying out mechanical dispersing by pipetting, it was passed through a cell strainer with a pore size of 70 μm, and a cell suspension was obtained. Cells derived from 1.4 cerebra were seeded on 150 mm tissue culture dish (Iwaki Glass), and primary culture was carried out at 37 degrees Celsius and 5% CO2 using a D-MEM medium (Invitrogen) containing 10% heat-inactivated fetal calf serum (JRH). One day after the start of the culture, the nonadherent cells were removed, and the primary cultured astrocytes were obtained by continuing the culture for 4 to 5 further days. The primary cultured astrocytes were dispersed by trypsin treating, suspended in cryopreservation solution, and cryopreserved.
# (§2) After thawing the cryopreserved primary cultured astrocytes, they were seeded on tissue culture plates (Iwaki Glass), and a confluent astrocyte layer was produced by a further 7 days of secondary culture using a D-MEM medium containing 10% heat-inactivated fetal calf serum. Neurons to be used in the co-culture with the astrocyte layer were obtained from fetal rat cerebrum. Briefly, brains were removed from Wistar rats (Charles River) or Sprague-Dawley (IGS) rats (Charles River) of embryonic age 18.5 days, and the cerebral cortex including the hippocampus was excised under ice cooling. After this cerebral cortex was minced, it was digested in papain solution (9 U/ml) containing DNase I (30 U/ml) at 37 degrees Celsius for 15 minutes, dispersing the cells. After further carrying out mechanical dispersing by pipetting, it was passed through a cell strainer with a pore size of 70 μm, and a cell suspension was obtained. This cell suspension was plated at a density of 1.3×10^5 cells/cm^2 on the astrocyte layer, and a co-culture was carried out using D-MEM/F-12 medium (Invitrogen) containing 10% heat-inactivated fetal calf serum and 5% horse serum (Invitrogen). 2 days after the start of the co-culture, cells were treated for 24 hours with 10 μM cytosine arabinoside in order to suppress the excessive cell proliferation of microglia and the like. 8 to 9 days after the start of the co-culture, cells were used for the test. Additionally, using one portion of the cells, immunofluorescent staining and nuclear staining was carried out with astrocyte recognizing antibodies (anti-GFAP) and neuron recognizing antibodies (anti-MAP2), in order to confirm that the present culture system is a co-culture system of astrocytes and neurons.
# (§3) An astrocyte/neuron co-culture cultured on a 96 well plate was used in the test. A predetermined concentration of the test substance and hydrogen peroxide (250 μM) was simultaneously added to the cell culture in each well with continuing cultivation, and analysis was done 24 hours after this treatment. Using an LDH Cytotoxicity Detection Kit (Takara Bio), analysis was carried out in accordance with the included instruction manual, and the damage to the entire co-culture system by the hydrogen peroxide treatment and the protective effect (EC 50 value) of the test substance was evaluated. Further, the cell bodies and the neuronal processes of the neurons were observed by microscope, and the neuroprotective effect was evaluated.
# [3] = test system: neurons in astrocyte/neuron co-culture; assay: Brain cell damage induced by hydrogen peroxide treatment (neuroprotective effect, microscope observation); assay type: cell-based; settings: Rattus norvegicus, hydrogen peroxide (250 μM), 24 hours, read-out: Concentration for complete inhibition of neuronal death
# Experimental: as §1, §2, §3
Structure (SMILES),IC50 [1] [nM],EC50 [2] [nM],EC100 [3] [µM]
"Oc1ccc(N2CCN(c3nc(N4CCOCC4)cc(N4CCOCC4)n3)CC2)cc1 [Compound 30, 2-[4-(4-hydroxyphenyl)piperazin-1-yl]-4,6-dimorpholinopyrimidine]",6840,3010,10
"c1ccc(N2CCN(c3cc(N4CCOCC4)nc(N4CCN(c5ccccc5)CC4)n3)CC2)cc1 [Compound 57, 2,4-bis(4-phenylpiperazin-1-yl)-6-morpholinopyrimidine]",30500,5120,30
"Nc1c(N2CCOCC2)nc(N2CCN(c3ccccc3)CC2)nc1N1CCOCC1 [Compound 63, 5-amino-4,6-dimorpholino-2-(4-phenylpiperazin-1-yl)pyrimidine]",810,8300,30
"Nc1c(N2CCOCC2)nc(N2CCC(Cc3ccccc3)CC2)nc1N1CCOCC1 [Compound 66, 5-amino-2-(4-benzylpiperidin-1-yl)-4,6-dimorpholinopyrimidine]",820,2860,30
"Nc1c(N2CCOCC2)nc(N2CCN(Cc3ccccc3)CC2)nc1N1CCOCC1 [Compound 73, 5-amino-2-(4-benzylpiperazin-1-yl)-4,6-dimorpholinopyrimidine]",690,10600,
"Nc1c(N2CCOCC2)nc(N2CCN(c3ccccn3)CC2)nc1N1CCOCC1 [Compound 75, 5-amino-4,6-dimorpholino-2-[4-(pyridin-2-yl)-piperazin-1-yl]pyrimidine]",670,9460,
"Cc1ccc(N2CCN(c3nc(N4CCN(C)CC4)nc(N4CCOCC4)c3F)CC2)cc1 [Compound 151, 5-fluoro-4-[4-(4-methylphenyl)piperazin-1-yl]-2-(4-methylpiperazin-1-yl)-6-morpholinopyrimidine]",8410,980,
"Cc1ccc(N2CCN(c3nc(N4CCOCC4)c(F)c(N4CCN(C(=O)OC(C)(C)C)CC4)n3)CC2)cc1 [Compound 153, 4-[4-(tert-butoxycarbonyl)piperazin-1-yl]-5-fluoro-2-[4-(4-methylphenyl)piperazin-1-yl]-6-morpholinopyrimidine]",,450,3
"Cc1ccc(N2CCN(c3nc(N4CCOCC4)nc(N4CCN(C)CC4)c3F)CC2)cc1 [Compound 155, 5-fluoro-4-[4-(4-methylphenyl)piperazin-1-yl]-6-(4-methylpiperazin-1-yl)-2-morpholinopyrimidine]",,320,3
"Cc1ccc(N2CCN(c3nc(NCCN4CCNCC4)nc(N4CCOCC4)c3F)CC2)cc1 [Compound 158, 5-fluoro-4-[4-(4-methylphenyl)piperazin-1-yl]-6-morpholino-2-[2-(piperazin-1-yl)-ethylamino]pyrimidine]",,160,1
"Cc1ccc(N2CCN(c3nc(N4CCOCC4)nc(NCCN4CCOCC4)c3F)CC2)cc1 [Compound 160, 5-fluoro-4-[4-(4-methylphenyl)piperazin-1-yl]-2-morpholino-6-(2-morpholinoethylamino)pyrimidine]",,1080,3
"CC(C)(C)OC(=O)N1CCN(c2nc(N3CCCc4ccccc43)nc(N3CCOCC3)c2F)CC1 [Compound 168, 4-[4-(tert-butoxycarbonyl)piperazin-1-yl]-5-fluoro-6-morpholino-2-(1,2,3,4-tetrahydro-1H-quinolin-1-yl)pyrimidine]",,310,3
"COc1ccc(/C=C/c2nc(NCCN)c(N)c(N3CCOCC3)n2)cc1 [Compound 174, 5-amino-4-(2-aminoethylamino)-2-[2-(4-methoxyphenyl)vinyl]-6-morpholinopyrimidine]",,3110,10
"Cc1cccc(N2CCN(c3nc(N4CCNCC4)nc(N4CCOCC4)c3F)CC2)c1C [Compound 178, 5-fluoro-4-morpholino-2-(1-piperazinyl)-6-[4-(2,3-xylyl)piperazin-1-yl]pyrimidine]",,480,3
"Cc1cccc(N2CCN(c3nc(N4CCOCC4)c(F)c(N4CCN(C(=O)OC(C)(C)C)CC4)n3)CC2)c1C [Compound 179, 4-(4-tert-butoxycarbonylpiperazin-1-yl)-5-fluoro-6-morpholino-2-[4-(2,3-xylyl)piperazin-1-yl]pyrimidine]",,340,3
"CN1CCN(c2nc(N3CCN(c4ccccc4Cl)CC3)nc(N3CCOCC3)c2F)CC1 [Compound 187, 2-[4-(2-chlorophenyl)piperazin-1-yl]-5-fluoro-6-(4-methylpiperazin-1-yl)-4-morpholino pyrimidine]",,330,1
"CCOc1ccccc1N1CCN(c2nc(N3CCOCC3)c(F)c(N3CCN(C)CC3)n2)CC1 [Compound 190, 2-[4-(2-ethoxyphenyl)piperazin-1-yl]-5-fluoro-4-(4-methylpiperazin-1-yl)-6-morpholinopyrimidine]",,340,3
"Cc1cccc(N2CCN(c3nc(N4CCN(Cc5ccc(N(C)C)cc5)CC4)nc(N4CCOCC4)c3F)CC2)c1C [Compound 192, 5-fluoro-2-[4-(4-dimethylaminobenzyl)piperazin-1-yl]-4-morpholino-6-[4-(2,3-xylyl)piperazin-1-yl]pyrimidine]",,300,1
"COc1ccc(/C=C/c2nc(NCC(N)=O)c(N)c(N3CCOCC3)n2)cc1 [Compound 206, 5-amino-4-carbamoylmethylamino-2-[2-(4-methoxyphenyl)vinyl]-6-morpholinopyrimidine]",,4850,10
"COc1ccc(/C=C/c2nc(NCCN3CCOCC3)c(N)c(N3CCOCC3)n2)cc1 [Compound 207, 5-amino-2-[2-(4-methoxyphenyl)vinyl]-4-morpholino-6-(2-morpholinoethylamino)pyrimidine]",,5800,10
"CCOC(=O)C1CSCCN1c1nc(/C=C/c2ccc(OC)cc2)nc(N2CCOCC2)c1N (stereo not shown) [Compound 209, 5-amino-4-(3-ethoxycarbonylthiomorpholin-4-yl)-2-[2-(4-methoxyphenyl)vinyl]-6-morpholinopyrimidine]",,1480,10
"COc1ccc(/C=C/c2nc(N(C)C)c(N)c(N3CCNCC3)n2)cc1 [Compound 210, 5-amino-4-dimethylamino-2-[2-(4-methoxyphenyl)vinyl]-6-(1-piperazinyl)pyrimidine]",,4070,10
"COc1ccc(CCc2nc(N3CCOCC3)c(N)c(N3CCN(S(=O)(=O)N(C)C)CC3)n2)cc1 [Compound 214, 5-amino-4-(4-dimethylsulfamoylpiperazin-1-yl)-2-[2-(4-methoxyphenyl)ethyl]-6-morpholinopyrimidine]",,2260,10
"COc1ccc(/C=C/c2nc(N3CCOCC3)c(N)c(N3CCN(S(=O)(=O)N(C)C)CC3)n2)cc1 [Compound 215, 5-amino-4-(4-dimethylsulfamoylpiperazin-1-yl)-2-[2-(4-methoxyphenyl)vinyl]-6-morpholinopyrimidine]",,1610,10
